Data taken from patent US20240295544A1 (priority 2020, published 2024).

Test system: CMs

CC(C)C[C@H](NC(=O)[C@H](Cc1ccccc1)NC(=O)c1cnccn1)B(O)O [bortezomib]
fragmentation frequency and severity compared with SARS-CoV-2 (human): much more infrequently and less severely than SARS-CoV-2
induction of myofibril fragmentations in CMs (no virus, bortezomib only at high doses (1 uM and 10 uM tested), doxorubicin 20 nM and 200 nM (Table 1A)): induced myofibril fragmentations
